Here are results for 18 molecules from patent US12030867B2, “Hsp90β selective inhibitors” (University of Notre Dame du Lac, priority 2018, dated 2024).

Where two headings read alike, the source gives them in different places.

Assay [1] addresses Hsp90α (Homo sapiens (Human), UniProt P07900). Briefly: fluorescence polarization (FP) assay, competitive displacement of FITC labeled Geldanamycin. The assay is classed as binding. The procedure: (§1) Once prepared, the compounds were evaluated for their binding affinities against the cytosolic isoforms, Hsp90α and Hsp90β by measuring their ability to competitively displace FITC labeled Geldanamycin (GDA) in a fluorescence polarization assay (apparent Kd's listed in Table 1). […] The alkyne (4k) was investigated to determine whether a linear substituent could project into the subpocket and affect selectivity.

In assay [2] the target is T1, Hsp90β (Homo sapiens (Human), UniProt P08238). Described as above. The assay is classed as binding. As for the experimental part: as §1
T1 sequence (P08238 whole entry): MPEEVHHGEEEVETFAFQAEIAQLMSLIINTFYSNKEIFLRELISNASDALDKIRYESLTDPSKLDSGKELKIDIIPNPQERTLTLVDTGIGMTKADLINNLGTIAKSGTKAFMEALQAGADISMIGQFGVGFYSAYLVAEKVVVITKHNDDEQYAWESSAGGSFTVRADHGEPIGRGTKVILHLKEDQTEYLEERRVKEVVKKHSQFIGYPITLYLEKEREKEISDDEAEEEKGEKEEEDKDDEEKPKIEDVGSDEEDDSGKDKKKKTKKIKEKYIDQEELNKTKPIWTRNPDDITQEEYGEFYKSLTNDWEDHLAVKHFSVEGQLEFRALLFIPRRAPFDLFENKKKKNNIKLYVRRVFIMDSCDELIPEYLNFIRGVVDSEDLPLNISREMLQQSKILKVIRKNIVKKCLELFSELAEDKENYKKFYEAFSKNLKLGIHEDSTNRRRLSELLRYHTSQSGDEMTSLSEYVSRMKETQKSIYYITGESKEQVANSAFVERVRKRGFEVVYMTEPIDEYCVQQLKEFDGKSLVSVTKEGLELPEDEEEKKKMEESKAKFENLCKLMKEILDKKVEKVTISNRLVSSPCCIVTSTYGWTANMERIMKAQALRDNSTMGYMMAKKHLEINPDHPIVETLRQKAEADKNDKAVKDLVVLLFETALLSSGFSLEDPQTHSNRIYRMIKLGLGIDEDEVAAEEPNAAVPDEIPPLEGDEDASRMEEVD
Assay [3] has as its target T1, Hsp90β. The note with it: previously reported inhibitors; cited from earlier work.
Setting [4] is: apparent Kd, FP assay, read-out: Hsp90α Kd.
[5] abbreviates: apparent Kd, FP assay, read-out: Hsp90β Kd.

Regarding `Cc1cc2cc(-n3nc(C)c4c3CC(C)(C)CC4=O)cc(N[C@H]3CC[C@H](O)CC3)c2c(=O)[nH]1` [Compound 4a, 8-(((1r,4r)-4-hydroxycyclohexyl)amino)-3-methyl-6-(3,6,6-trimethyl-4-oxo-4,5,6,7-tetrahydro-1H-indazol-1-yl)isoquinolin-1(2H)-one], the Kd was 0.294 ± 0.023 µM in assay [1] (setting [4]) and 0.101 ± 0.003 µM in assay [2] (setting [5]). In addition, the “selectivity for Hsp90β over Hsp90α” value in assay [2] amounted to 3 fold.

As to `CCc1cc2cc(-n3nc(C)c4c3CC(C)(C)CC4=O)cc(N[C@H]3CC[C@H](O)CC3)c2c(=O)[nH]1` [Compound 4b, 3-ethyl-8-(((1r,4r)-4-hydroxycyclohexyl)amino)-6-(3,6,6-trimethyl-4-oxo-4,5,6,7-tetrahydro-1H-indazol-1-yl)isoquinolin-1(2H)-one], the Kd in assay [1] (setting [4]) came to 0.18 ± 0.036 µM; in assay [2] (setting [5]), 0.068 ± 0.008 µM.

In the case of `Cc1nn(-c2cc(N[C@H]3CC[C@H](O)CC3)c3c(=O)[nH]c(C(C)C)cc3c2)c2c1C(=O)CC(C)(C)C2` [Compound 4c, 8-(((1r,4r)-4-hydroxycyclohexyl)amino)-3-isopropyl-6-(3,6,6-trimethyl-4-oxo-4,5,6,7-tetrahydro-1H-indazol-1-yl)isoquinolin-1(2H)-one], the Kd in assay [1] (setting [4]) is 0.173 ± 0.036 µM; in assay [2] (setting [5]), 0.051 ± 0.008 µM.

On to `CCCCc1cc2cc(-n3nc(C)c4c3CC(C)(C)CC4=O)cc(N[C@H]3CC[C@H](O)CC3)c2c(=O)[nH]1` [Compound 4e, 3-butyl-8-(((1r,4r)-4-hydroxycyclohexyl)amino)-6-(3,6,6-trimethyl-4-oxo-4,5,6,7-tetrahydro-1H-indazol-1-yl)isoquinolin-1(2H)-one], for which, in assay [1] (FP assay), the “binding to Hsp90α (in words)” value is on record as “did not bind”. The Kd in assay [1] (setting [4]) is > 50 µM; in assay [2], 0.186 µM; in assay [2] (setting [5]), 0.156 ± 0.018 µM. In assay [2], the “selectivity for Hsp90β over Hsp90α” value is > 300 fold. Also, the “affinity for Hsp90β (in words)” value in assay [2] (FP assay) is recorded as “did not bind”.

As to `Cc1nn(-c2cc(N[C@H]3CC[C@H](O)CC3)c3c(=O)[nH]c(C(C)(C)C)cc3c2)c2c1C(=O)CC(C)(C)C2` [Compound 4f, 3-(tert-butyl)-8-(((1r,4r)-4-hydroxycyclohexyl)amino)-6-(3,6,6-trimethyl-4-oxo-4,5,6,7-tetrahydro-1H-indazol-1-yl)isoquinolin-1(2H)-one], the Kd in assay [1] (setting [4]) and in assay [2] (setting [5]) was > 50 µM each time.

With `Cc1nn(-c2cc(N[C@H]3CC[C@H](O)CC3)c3c(=O)[nH]c(CC(C)C)cc3c2)c2c1C(=O)CC(C)(C)C2` [Compound 4g, 8-(((1r,4r)-4-hydroxycyclohexyl)amino)-3-isobutyl-6-(3,6,6-trimethyl-4-oxo-4,5,6,7-tetrahydro-1H-indazol-1-yl)isoquinolin-1(2H)-one], the Kd in assay [1] (setting [4]) was > 50 µM. In addition, in assay [2] (FP assay), the “affinity for Hsp90β (in words)” value is “decrease in affinity” and the “selectivity for Hsp90β over Hsp90α (in words)” value (from here on “selectivity … (in words)”) was “maintained selectivity”. Moreover, in assay [2] (setting [5]), the Kd was found to be 0.264 ± 0.03 µM.

On to `Cc1nn(-c2cc(N[C@H]3CC[C@H](O)CC3)c3c(=O)[nH]c(C4CC4)cc3c2)c2c1C(=O)CC(C)(C)C2` [Compound 4h, 3-cyclopropyl-8-(((1r,4r)-4-hydroxycyclohexyl)amino)-6-(3,6,6-trimethyl-4-oxo-4,5,6,7-tetrahydro-1H-indazol-1-yl)isoquinolin-1(2H)-one], for which the Kd in assay [1] (setting [4]) was 1.88 ± 0.28 µM; in assay [2] (setting [5]) it was 0.946 ± 0.038 µM. Moreover, the “affinity for Hsp90β (in words)” value in assay [2] (FP assay) is “loss of potency”.

Turning to `COCc1cc2cc(-n3nc(C)c4c3CC(C)(C)CC4=O)cc(N[C@H]3CC[C@H](O)CC3)c2c(=O)[nH]1` [Compound 4i, 8-(((1r,4r)-4-hydroxycyclohexyl)amino)-3-(methoxymethyl)-6-(3,6,6-trimethyl-4-oxo-4,5,6,7-tetrahydro-1H-indazol-1-yl)isoquinolin-1(2H)-one], the Kd was determined as 0.306 ± 0.023 µM in assay [1] (setting [4]) and 0.159 ± 0.003 µM in assay [2] (setting [5]). In assay [2] (FP assay), the “selectivity … (in words)” value is on record as “loss of selectivity”.

As for `Cc1nn(-c2cc(N[C@H]3CC[C@H](O)CC3)c3c(=O)[nH]c(CO)cc3c2)c2c1C(=O)CC(C)(C)C2` [Compound 4j, 8-(((1r,4r)-4-hydroxycyclohexyl)amino)-3-(hydroxymethyl)-6-(3,6,6-trimethyl-4-oxo-4,5,6,7-tetrahydro-1H-indazol-1-yl)isoquinolin-1(2H)-one], the figures for the Kd in assay [1] (setting [4]) and in assay [2] (setting [5]) were 0.824 ± 0.104 µM and 0.233 ± 0.018 µM, respectively. For the same molecule, the “selectivity … (in words)” value in assay [2] (FP assay) was “loss of selectivity”.

In the case of `C#Cc1cc2cc(-n3nc(C)c4c3CC(C)(C)CC4=O)cc(N[C@H]3CC[C@H](O)CC3)c2c(=O)[nH]1` [Compound 4k, 3-ethynyl-8-(((1r,4r)-4-hydroxycyclohexyl)amino)-6-(3,6,6-trimethyl-4-oxo-4,5,6,7-tetrahydro-1H-indazol-1-yl)isoquinolin-1(2H)-one], the Kd stood at 0.381 ± 0.003 µM in assay [1] (setting [4]) and 0.337 ± 0.015 µM in assay [2] (setting [5]). Further, the “selectivity … (in words)” value in assay [2] (FP assay) is “without discrimination”.

Take `CCCc1cc2cc(-n3nc(C)c4c3CC(C)(C)CC4=O)cc(N3CCOCC3)c2c(=O)[nH]1` [Compound 5a, 8-morpholino-3-propyl-6-(3,6,6-trimethyl-4-oxo-4,5,6,7-tetrahydro-1H-indazol-1-yl)isoquinolin-1(2H)-one]: the values for the Kd in assay [1] (setting [4]), in assay [2] (setting [5]) and in assay [2] (read-out: Kd for Hsp90β) were > 50 µM, 0.121 ± 0.017 µM and ~0.121 µM, respectively. Also, the “selectivity … (in words)” value in assay [2] (FP assay) is listed as “excellent selectivity”.

Take `CCCc1cc2cc(-n3nc(C)c4c3CC(C)(C)CC4=O)cc(N3CCN(C)CC3)c2c(=O)[nH]1` [Compound 5c, 8-(4-methylpiperazin-1-yl)-3-propyl-6-(3,6,6-trimethyl-4-oxo-4,5,6,7-tetrahydro-1Hindazol-1-yl)isoquinolin-1(2H)-one]: in assay [1] (setting [4]), the Kd was determined as 8.52 ± 0.24 µM. Besides, in assay [2] (FP assay), the “affinity for Hsp90β (in words)” value was “decrease in affinity”; the “selectivity … (in words)” value was “decrease in affinity and selectivity”. The Kd in assay [2] (setting [5]) came to 0.426 ± 0.053 µM.

As for `CCCc1cc2cc(-n3nc(C)c4c3CC(C)(C)CC4=O)cc(N3CCNCC3)c2c(=O)[nH]1` [Compound 5d, 8-(piperazin-1-yl)-3-propyl-6-(3,6,6-trimethyl-4-oxo-4,5,6,7-tetrahydro-1H-indazol-1-yl)isoquinolin-1(2H)-one], the values for the Kd in assay [1] (setting [4]) and in assay [2] (setting [5]) were > 50 µM and 4.47 ± 0.278 µM, respectively.

With `CCCc1cc2cc(-n3nc(C)c4c3CC(C)(C)CC4=O)cc(N3CCN(C(=O)OC(C)(C)C)CC3)c2c(=O)[nH]1` [Compound 5e, tert-butyl 4-(1-oxo-3-propyl-6-(3,6,6-trimethyl-4-oxo-4,5,6,7-tetrahydro-1H-indazol-1-yl)-1,2-dihydroisoquinolin-8-yl)piperazine-1-carboxylate], the Kd in assay [1] was > 50 µM; in assay [2], 0.463 ± 0.031 µM.

Take `CCCc1cc2cc(-n3nc(C)c4c3CC(C)(C)CC4=O)cc(NC3CCN(C)CC3)c2c(=O)[nH]1` [Compound 5f, 8-((1-methylpiperidin-4-yl)amino)-3-propyl-6-(3,6,6-trimethyl-4-oxo-4,5,6,7-tetrahydro-1Hindazol-1-yl)isoquinolin-1(2H)-one]: the values for the Kd in assay [1] (setting [4]) and in assay [2] (setting [5]) were 17.1 ± 0.66 µM and 0.513 ± 0.067 µM, respectively.

Turning to `CCCc1cc2cc(-n3nc(C)c4c3CC(C)(C)CC4=O)cc(N(C)CCN(CC)CC)c2c(=O)[nH]1` [Compound 5g, 8-((2-(diethylamino)ethyl)(methyl)amino)-3-propyl-6-(3,6,6-trimethyl-4-oxo-4,5,6,7-tetrahydro-1H-indazol-1-yl)isoquinolin-1(2H)-one], the values for the Kd in assay [1] (setting [4]) and in assay [2] (setting [5]) were > 50 µM and 4.46 ± 0.188 µM, respectively.

As for `CCCC1Cc2cc(-n3nc(C)c4c3CC(C)(C)CC4=O)cc(N3CCC(O)CC3)c2C(=O)N1` (centres unmarked) [Compound 6b, 8-(4-hydroxypiperidin-1-yl)-3-propyl-6-(3,6,6-trimethyl-4-oxo-4,5,6,7-tetrahydro-1Hindazol-1-yl)-3,4-dihydroisoquinolin-1(2H)-one], in assay [2] (FP assay), the “affinity for Hsp90β (in words)” value is “lost both selectivity and affinity”; the “selectivity … (in words)” value is “lost both selectivity and affinity”.

Take `CC1(C)CC(=O)c2c(C(F)(F)F)nn(-c3ccc(C(N)=O)c(N[C@H]4CC[C@H](O)CC4)c3)c2C1` [SNX 2112]: in assay [3], the “Hsp90α/Hsp90β isoform profile (in words)” value is recorded as “equipotent affinity”.
